Structures can show the parent of a compound that is named as a salt.

The first assay concerns the target neuronal nicotinic cholinergic channel receptors. The experiment in a line: [3H]-cytisine displacement binding to neuronal nicotinic cholinergic channel receptors. As to conditions: Table 2; [3H]-cytisine 1.25 nM, 60 min at 4° C.; dihydrochloride; read-out: Receptor Binding Ki. It is filed as rat (crude synaptic membranes from whole rat brain). As for the experimental part:
B. Protocol For Determination of Nicotinic Cholinergic Channel Receptor Binding Potencies of Ligands
Binding of [^3 H]-cytisine ([^3 H]-CYT) to nicotinic receptors was accomplished using crude synaptic membrane preparations from whole rat brain (Pabreza et al., Molecular Pharmaol., 1990, 39:9). Washed membranes were stored at -80° C. prior to use. Frozen aliquots were slowly thawed and resuspended in 20 volumes of buffer (containing: 120 mM NaCl, 5 mM KCl, 2 mM MgCl2, 2 mM CaCl2 and 50 mM Tris-Cl, pH 7.4 @4° C.). After centrifuging at 20,000×g for 15 minutes, the pellets were resuspended in 30 volumes of buffer. Homogenate (containing […]) was added to triplicate tubes containing concentrations of test compound and [^3 H]-CYT (1.25 nM) in a final volume of 500 μL. Samples were incubated for 60 minutes at 4° C., then rapidly filtered through Whatman GF/B filters presoaked in 0.5% polyethylimine using 3×4 mL of ice-cold buffer. The filters are counted in 4 mL of Ecolume® (ICN). […] Alternately, data were expressed as a percentage of the total specific binding.
The term Ki denotes a measure of affinity in units of concentration, obtained from inhibition or displacement. As for `Cc1ncccc1OC[C@H]1CCN1` [Example 81, 2-methyl-3-(2-(R)-azetidinylmethoxy)pyridine dihydrochloride], the Ki worked out at 9.3 nM.

The assay is the same for the next values; noted with them: Table 2; [3H]-cytisine 1.25 nM, 60 min at 4° C.; read-out: Receptor Binding Ki.
For the molecule `FC(F)(F)c1cncc(OC[C@@H]2CCCN2)c1` [Example 66, 3-(2-(S)-pyrrolidinylmethoxy)-5-trifluoromethylpyridine dihydrochloride], the Ki amounted to 4 nM.

Consider `Brc1cncc(OC[C@@H]2CCN2)c1` [Example 67, 3-(2-(S)-azetidinylmethoxy)-5-bromopyridine dihydrochloride], for which the Ki stood at 0.2 nM.

Take `CN1CC[C@H]1COc1cncc(Br)c1` [Example 68, 3-((1-methyl-2-(S)-azetidinyl)methoxy)-5-bromopyridine dihydrochloride]: the Ki came out at 4.5 nM. On the same count and under the same terms, for `FC(F)(F)c1cncc(OC[C@H]2CCCN2)c1` [Example 69, 3-(2-(R)-pyrrolidinylmethoxy)-5-trifluoromethylpyridine dihydrochloride] the value was 2.1 nM; for `FC(F)(F)c1cncc(OC[C@@H]2CCN2)c1` [Example 70, 3-(2-(S)-azetidinylmethoxy)-5-trifluoromethylpyridine dihydrochloride], 0.6 nM.

In the case of `CCCCc1cncc(OC[C@@H]2CCCN2C)c1` [Example 71, 5-n-butyl-3-((1-methyl-2-(S)-pyrrolidinyl)methoxy)pyridine dihydrochloride], the inhibitory constant (Ki) stood at 0.1 nM. The same measure, in the same setting: next, `O[C@H]1CN[C@H](COc2cccnc2)C1` [Example 72, 3-((trans-4-hydroxy-2-(S)-pyrrolidinyl)methoxy)pyridine dihydrochloride]: 110 nM. `Cc1cncc(OC[C@@H]2CCCN2C)c1` [Example 73, 5-methyl-3-(1-methyl-2-(S)-pyrrolidinylmethoxy)pyridine dihydrochloride]: the Ki amounted to 0.48 nM. Take `CO[C@H]1CN[C@H](COc2cccnc2)C1` [Example 74, 3-((trans-4-methoxy-2-(S)-pyrrolidinyl)methoxy)pyridine dihydrochloride]: the inhibition constant (Ki) was 59 nM. Consider `CCc1cncc(OC[C@@H]2CCCN2C)c1` [Example 75, 5-ethyl-3-(1-methyl-2-(S)-pyrrolidinylmethoxy)pyridine dihydrochloride], for which the Ki worked out at 0.32 nM. Still for that read-out and setting: next, `c1ccc2ncc(OC[C@H]3CCCN3)cc2c1` [Example 76, 3-(2-(R)-pyrrolidinylmethoxy)quinoline dihydrochloride]: 12.8 nM; `CCCc1cncc(OC[C@@H]2CCCN2C)c1` [Example 77, 5-n-propyl-3-((1-methyl-2-(S)-pyrrolidinyl)methoxy)pyridine dihydrochloride]: 0.1 nM. The same measure, in the same setting: for `CN1C[C@@H](F)C[C@H]1COc1cccnc1` [Example 78, 3-((cis-4-fluoro-1-methyl-2-(S)-pyrrolidinyl)methoxy)pyridine dihydrochloride] the value was 5.77 nM; for `CN1CCC[C@H]1COc1cccnn1` [Example 79, 3-((1-methyl-2-(S)-pyrroidinyl)methoxy)pyridazine dihydrochloride], 42.8 nM. On the same count and under the same terms, for `CN1CC[C@H]1COc1cncc(Cl)c1` [Example 80, 5-chloro-3-((1-methyl-2-(S)-azetidinyl)methoxy)pyridine dihydrochloride] the value was 1.9 nM. Take `C=CCN1CCC[C@H]1COc1cccnc1` [Example 82, 3-((1-allyl-2-(S)-pyrrolidinyl)methoxy)pyridine dihydrochloride]: the inhibition constant (Ki) was determined as 72.4 nM.

Consider `CN1C[C@H](CO)C[C@H]1COc1cccnc1` [Example 83, 3-((trans-4-hydroxymethyl-1-methyl-2-(S)-pyrrolidinyl)methoxy)pyridine dihydrochloride], for which the Ki worked out at 73.1 nM. The same measure, in the same setting: for `CN1CCC[C@H]1COc1cncnc1` [Example 84, 5-(1-methyl-2-(S)-pyrrolidinylmethoxy)pyrimidine dihydrochloride] the value was 2.41 nM. In the case of `Clc1ccc(OC[C@@H]2CCN2)nn1` [Example 85, 3-(2-(S)-azetidinylmethoxy)-6-chloropyridazine hydrochloride], the inhibitory constant (Ki) came out at 16 nM.

For the molecule `CN1CC[C@H]1COc1ccc(Cl)nc1` [Example 86, 3-((1-methyl-2-(S)-azetidinyl)methoxy)-6-chloropyridine hydrochloride], the inhibition constant (Ki) was 1.43 nM. Same read-out and setting: next, `CN1C[C@H](OS(C)(=O)=O)C[C@H]1COc1cccnc1` [Example 87, 3-((trans-4-methanesulfonyloxy-1-methyl-2(S)-pyrrolidinyl)methoxy)pyridine dihydrochloride]: 0.11 nM. As to `CN1CCC[C@H]1COc1ccc(CO)nc1` [Example 88, 6-hydroxymethyl-3-((1-methyl-2-(S)-pyrrolidinyl)methoxy)pyridine dihydrochloride], the inhibition constant (Ki) stood at 10.4 nM. Same read-out and setting: next, `C[C@@H]1CC[C@@H](COc2cccnc2)N1C` [Example 89, 3-((trans-1,5-dimethyl-2-(S)-pyrrolidinyl)methoxy)pyridine hydrochloride]: 91.2 nM; `CN1C[C@@H](C#N)C[C@H]1COc1cccnc1` [Example 90, 3-((cis-4-cyano-1-methyl-2(S)-pyrrolidinyl)methoxy)pyridine dihydrochloride]: 18.4 nM. The same measure, in the same setting: for `CN1C[C@@H](CF)C[C@H]1COc1cccnc1` [Example 92, 3-((cis-4-fluoromethyl-1-methyl-2-(S)-pyrrolidinyl)methoxy)pyridine dihydrochloride] the value was 141 nM; for `CN1CCC[C@H]1COc1cncc(N)c1` [Example 94, 5-Amino-3-(1-methyl-2(S)-pyrrolidinylmethoxy)pyridine hydrochloride], 0.5 nM. The same measure, in the same setting: for `c1cncc(OCC[C@@H]2CCCN2)c1` [Example 102, 3-(2-(2-(S)-pyrrolidinyl)ethoxy)pyridine dihydrochloride] the value was 34.9 nM; for `CN1CCC[C@H]1CCOc1cccnc1` [Example 103, 3-(2-(1-methyl-2-(S)-pyrrolidinyl)ethoxy)pyridine dihydrochloride], 18.4 nM. For `CN1CCC[C@H]1CCOc1ccc(Cl)nc1` [Example 105, 3-(2-(1-methyl-2-(S)-pyrrolidinyl)ethoxy-6-chloropyridinedihydrochloride], the inhibitory constant (Ki) came out at 33.1 nM.

For `CN1CCC[C@H]1COc1cncc([N+](=O)[O-])c1` [Example 108, 5-Nitro-3-(1-methyl-2(S)-pyrrolidinylmethoxy)pyridine hydrochloride], the Ki amounted to 4.9 nM. The same measure, in the same setting: next, `Clc1cc(OC[C@@H]2CCN2)cnc1Cl` [Example 109, 5,6-Dichloro-3-(2-(S)-azetidinylmethoxy)pyridine hydrochloride]: 0.024 nM; `CN1CC[C@H]1COc1cnc(Cl)c(Cl)c1` [Example 110, 5,6-Dichloro-3-(1-methyl-2-(S)-azetidinylmethoxy)pyridine hydrochloride]: 0.75 nM.
